Laboratory results as given in patent US12171886B2, “Mussel adhesive protein-based photothermal agent and photothermal-responsive adhesive nanoparticles” (POSTECH RESEARCH AND BUSINESS DEVELOPMENT FOUNDATION, priority 2018, dated 2024).

Assay: Absorbance of nanoparticles in the near-infrared region (UV-vis spectrometer)
Type: physicochemical
Conditions: control solutions without DOPA-metal complex
Method: Absorbances in the near-infrared region of the FeMAP NPs and VMAP NPs prepared in Example 1-3 were analyzed through a UV-vis spectrometer, and the analysis results are shown in FIG. 4.

| SMILES | absorbance, absorption spectrum 500 nm to 900 nm |
| --- | --- |
| [Cl][Fe]([Cl])[Cl] [FeCl3] | almost no absorbance |
| [Cl][V]([Cl])[Cl] [VCl3] | almost no absorbance |
